Reference: patent US11993604B2, “Substituted pyrazolo[4,3-H]quinazolines as protein kinase inhibitors” (SHENGKE PHARMACEUTICALS (JIANGSU) LTD., priority 2017, dated 2024)

The compounds below were run against CDK6/cyclin D1 (Homo sapiens, UniProt Q00534) (assay: Biochemical kinase inhibition test, CDK6/cyclin D1 (similar method)). Conditions: CDK6/cyclin D1 versus CDK4/cyclin D1.
Method: Potency determination of biochemical kinase inhibition test. Kinase activity test and IC50 determination. Firstly, 10 ng of recombinant CDK4/Cyclin D1 (Life Technologies PV4204) was diluted in kinase buffer (20 mM Tris pH 7.5, 10 mM MgCl2, 0.01% NP-40, 2 mM DTT), and was incubated with inhibitors at the indicated concentration at room temperature for 30 minutes. The kinase reaction was initiated by adding […] (1.5 μM) of recombinant retinoblastoma protein, 5 μM ATP and 10μ Ci γ-32P-ATP. The reaction was incubated at 30° C. for 20 minutes, and was terminated by adding 2× Laemmli sample buffer, heated at 95° C. for three minutes, and the resulting solution was dissolved with 12% acrylamide SDS-PAGE and autoradiographed. A densitometer (Bio-Rad) was used to quantify the corresponding phosphorylated substrate protein bands. The resulting density values were plotted as a function of the log drug concentration using Prism 4 Graphpad software. IC50 values were determined by plotting a non-linear regression curve with a variable slope.
The inhibitory activity of the compounds disclosed herein against CDK6/cyclin D1 was tested by a similar method.
The compounds were tested in a three-fold serial dilution from the starting concentration of 10 μM, over 10-fold of IC50. The control compound, staurosporine, was tested in a four-fold serial dilution from the starting concentration of 20 μM, over 10-fold of IC50. These reactions took place in the presence of 10 μM ATP.

Chain of CDK6/cyclin D1 (Q00534 whole entry, species assumed): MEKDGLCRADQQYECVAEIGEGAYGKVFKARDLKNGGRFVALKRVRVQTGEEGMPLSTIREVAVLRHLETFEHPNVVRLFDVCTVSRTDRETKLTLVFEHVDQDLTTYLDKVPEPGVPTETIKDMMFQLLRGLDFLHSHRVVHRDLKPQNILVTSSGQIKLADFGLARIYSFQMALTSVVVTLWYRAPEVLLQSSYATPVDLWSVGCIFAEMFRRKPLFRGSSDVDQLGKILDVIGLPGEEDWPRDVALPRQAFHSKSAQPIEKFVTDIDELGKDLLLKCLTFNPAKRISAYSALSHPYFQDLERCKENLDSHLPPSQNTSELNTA
Chain of CDK6/cyclin D1 (P24385 whole entry partner, species assumed): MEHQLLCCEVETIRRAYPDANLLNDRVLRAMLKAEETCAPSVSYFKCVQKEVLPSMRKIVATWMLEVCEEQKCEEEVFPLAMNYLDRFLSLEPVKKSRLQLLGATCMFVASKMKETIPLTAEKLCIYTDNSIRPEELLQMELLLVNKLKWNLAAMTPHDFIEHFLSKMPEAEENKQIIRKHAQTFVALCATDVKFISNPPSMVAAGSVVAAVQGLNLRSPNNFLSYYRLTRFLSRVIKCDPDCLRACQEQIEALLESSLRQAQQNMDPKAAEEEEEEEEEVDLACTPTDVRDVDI

Structure (SMILES)	selectivity for CDK6/cyclin D1 relative to CDK4/cyclin D1 (enzyme inhibitory activity)
CCN1CCN(c2ccc(Nc3ncc4ccc5cnn(C6CC6)c5c4n3)nc2)CC1 [Compound I-56]	about 3 times
c1cc(Nc2ncc3ccc4cnn(C5CC5)c4c3n2)ncc1N1CCOCC1 [Compound I-58]	about 3 times
CC(C)n1ncc2c(Br)cc3cnc(Nc4cc(F)c(N5CCNCC5)cn4)nc3c21.Cl [Compound I-62]	about 2 times
CC(C)n1ncc2c(C#N)cc3cnc(Nc4ccc(N5CCNCC5)cn4)nc3c21.Cl [Compound I-71]	about 3 times
CC(C)n1ncc2c(C#N)cc3cnc(Nc4cc(F)c(N5CCNCC5)cn4)nc3c21.Cl [Compound I-72]	about 2 times
CCN1CCN(c2ccc(Nc3ncc4cc(C#N)c5cnn(C(C)C)c5c4n3)nc2)CC1 [Compound I-73]	about 3 times

Now from value to compound:

selectivity for CDK6/cyclin D1 relative to CDK4/cyclin D1 (enzyme inhibitory activity)	Structure (SMILES)
about 3 times	Cc1cc2cnc(Nc3ccc(N4CCNCC4)cn3)nc2c2c1cnn2C(C)C.Cl [Compound I-66]
about 2 times	Cc1cc2cnc(Nc3cc(F)c(N4CCNCC4)cn3)nc2c2c1cnn2C(C)C.Cl [Compound I-67]
about 3 times	CC(C)n1ncc2c(C#N)cc3cnc(Nc4ccc(N5CCOCC5)cn4)nc3c21 [Compound I-74]
about 2 times	CC(=O)c1cc2cnc(Nc3cc(F)c(N4CCNCC4)cn3)nc2c2c1cnn2C(C)C.Cl [Compound I-76]
about 3 times	COc1cc(OC)cc(-c2cc3cnc(Nc4ccc(N5CCNCC5)cn4)nc3c3c2cnn3C(C)C)c1.Cl [Compound I-80]
about 3 times	CCN1CCN(c2ccc(Nc3ncc4cc(-c5cc(OC)cc(OC)c5)c5cnn(C(C)C)c5c4n3)nc2)CC1 [Compound I-81]
about 3 times	COc1cc(OC)cc(-c2cc3cnc(Nc4ccc(N5CCOCC5)cn4)nc3c3c2cnn3C(C)C)c1 [Compound I-82]

Same assay, conditions: three-fold serial dilution from 10 μM; 10 μM ATP; read-out: CDK6/D1 (nM), enzyme inhibitory activity IC50

Structure (SMILES)	IC50 [nM]
CCN1CCN(c2ccc(Nc3ncc4ccc5cnn(C6CC6)c5c4n3)nc2)CC1 [Compound I-56]	5 to 10
CCN1CCN(c2cnc(Nc3ncc4ccc5cnn(C6CC6)c5c4n3)cc2C)CC1 [Compound I-57]	10 to 20
c1cc(Nc2ncc3ccc4cnn(C5CC5)c4c3n2)ncc1N1CCOCC1 [Compound I-58]	5 to 10
Cc1cc(Nc2ncc3ccc4cnn(C5CC5)c4c3n2)ncc1N1CCOCC1 [Compound I-59]	10 to 20
CC1CN(c2ccc(Nc3ncc4ccc5cnn(C6CC6)c5c4n3)nc2)CCO1 (stereo not shown) [Compound I-60]	10 to 20
CC(C)n1ncc2c(Br)cc3cnc(Nc4ccc(N5CCNCC5)cn4)nc3c21 [Compound I-61]	10 to 20
CC(C)n1ncc2c(Br)cc3cnc(Nc4cc(F)c(N5CCNCC5)cn4)nc3c21.Cl [Compound I-62]	10 to 20
CCN1CCN(c2ccc(Nc3ncc4cc(Br)c5cnn(C(C)C)c5c4n3)nc2)CC1 [Compound I-64]	10 to 20
CC(C)n1ncc2c(Br)cc3cnc(Nc4ccc(N5CCOCC5)cn4)nc3c21 [Compound I-65]	10 to 20
CC(C)n1ncc2c(C#N)cc3cnc(Nc4ccc(N5CCNCC5)cn4)nc3c21.Cl [Compound I-71]	1 to 5
CC(C)n1ncc2c(C#N)cc3cnc(Nc4cc(F)c(N5CCNCC5)cn4)nc3c21.Cl [Compound I-72]	10 to 20
CCN1CCN(c2ccc(Nc3ncc4cc(C#N)c5cnn(C(C)C)c5c4n3)nc2)CC1 [Compound I-73]	1 to 5
CC(=O)c1cc2cnc(Nc3ccc(N4CCNCC4)cn3)nc2c2c1cnn2C(C)C [Compound I-75]	< 1
CC(=O)c1cc2cnc(Nc3ccc(N4CCN(C)CC4)cn3)nc2c2c1cnn2C(C)C [Compound I-77]	< 1
CC(=O)c1cc2cnc(Nc3ccc(N4CCOCC4)cn3)nc2c2c1cnn2C(C)C [Compound I-79]	< 1

More lines, now with the values ahead:

IC50 [nM]	Structure (SMILES)
10 to 20	CC(C)n1ncc2c(Br)cc3cnc(Nc4ccc(N5CCN(C)CC5)cn4)nc3c21 [Compound I-63]
1 to 5	Cc1cc2cnc(Nc3ccc(N4CCNCC4)cn3)nc2c2c1cnn2C(C)C.Cl [Compound I-66]
10 to 20	Cc1cc2cnc(Nc3cc(F)c(N4CCNCC4)cn3)nc2c2c1cnn2C(C)C.Cl [Compound I-67]
1 to 5	Cc1cc2cnc(Nc3ccc(N4CCN(C)CC4)cn3)nc2c2c1cnn2C(C)C [Compound I-68]
1 to 5	CCN1CCN(c2ccc(Nc3ncc4cc(C)c5cnn(C(C)C)c5c4n3)nc2)CC1 [Compound I-69]
10 to 20	Cc1cc2cnc(Nc3ccc(N4CCOCC4)cn3)nc2c2c1cnn2C(C)C [Compound I-70]
1 to 5	CC(C)n1ncc2c(C#N)cc3cnc(Nc4ccc(N5CCOCC5)cn4)nc3c21 [Compound I-74]
5 to 10	CC(=O)c1cc2cnc(Nc3cc(F)c(N4CCNCC4)cn3)nc2c2c1cnn2C(C)C.Cl [Compound I-76]
< 1	CCN1CCN(c2ccc(Nc3ncc4cc(C(C)=O)c5cnn(C(C)C)c5c4n3)nc2)CC1 [Compound I-78]
1 to 5	COc1cc(OC)cc(-c2cc3cnc(Nc4ccc(N5CCNCC5)cn4)nc3c3c2cnn3C(C)C)c1.Cl [Compound I-80]
1 to 5	CCN1CCN(c2ccc(Nc3ncc4cc(-c5cc(OC)cc(OC)c5)c5cnn(C(C)C)c5c4n3)nc2)CC1 [Compound I-81]
1 to 5	COc1cc(OC)cc(-c2cc3cnc(Nc4ccc(N5CCOCC5)cn4)nc3c3c2cnn3C(C)C)c1 [Compound I-82]

These compounds were tested against T1, recombinant CDK4/Cyclin D1 (Homo sapiens, UniProt P11802) (assay: Biochemical kinase inhibition test, CDK4/Cyclin D1 (32P-ATP, retinoblastoma protein substrate)). Conditions: three-fold serial dilution from 10 μM; 10 μM ATP; read-out: CDK4/D1 (nM), enzyme inhibitory activity IC50.
T1 construct: purchased Life Technologies PV4204
T1 sequence (P11802 whole entry): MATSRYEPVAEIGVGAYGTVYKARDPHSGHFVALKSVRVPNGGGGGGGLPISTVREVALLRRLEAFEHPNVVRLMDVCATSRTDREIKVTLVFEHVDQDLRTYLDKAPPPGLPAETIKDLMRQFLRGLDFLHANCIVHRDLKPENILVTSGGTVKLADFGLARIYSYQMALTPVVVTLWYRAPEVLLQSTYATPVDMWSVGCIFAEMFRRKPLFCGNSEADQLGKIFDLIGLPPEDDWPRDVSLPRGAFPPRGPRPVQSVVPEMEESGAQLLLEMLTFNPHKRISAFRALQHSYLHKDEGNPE
T1 sequence (P24385 whole entry partner): as the sequence (P24385 whole entry partner, species assumed) above

Structure (SMILES)	IC50 [nM]
CCN1CCN(c2ccc(Nc3ncc4ccc5cnn(C6CC6)c5c4n3)nc2)CC1 [Compound I-56]	10 to 20
CCN1CCN(c2cnc(Nc3ncc4ccc5cnn(C6CC6)c5c4n3)cc2C)CC1 [Compound I-57]	10 to 20
c1cc(Nc2ncc3ccc4cnn(C5CC5)c4c3n2)ncc1N1CCOCC1 [Compound I-58]	10 to 20
Cc1cc(Nc2ncc3ccc4cnn(C5CC5)c4c3n2)ncc1N1CCOCC1 [Compound I-59]	10 to 20
CC1CN(c2ccc(Nc3ncc4ccc5cnn(C6CC6)c5c4n3)nc2)CCO1 (stereo not shown) [Compound I-60]	10 to 20
CC(C)n1ncc2c(Br)cc3cnc(Nc4ccc(N5CCNCC5)cn4)nc3c21 [Compound I-61]	10 to 20
CC(C)n1ncc2c(Br)cc3cnc(Nc4cc(F)c(N5CCNCC5)cn4)nc3c21.Cl [Compound I-62]	20 to 50
CCN1CCN(c2ccc(Nc3ncc4cc(Br)c5cnn(C(C)C)c5c4n3)nc2)CC1 [Compound I-64]	10 to 20
CC(C)n1ncc2c(Br)cc3cnc(Nc4ccc(N5CCOCC5)cn4)nc3c21 [Compound I-65]	10 to 20
CC(C)n1ncc2c(C#N)cc3cnc(Nc4ccc(N5CCNCC5)cn4)nc3c21.Cl [Compound I-71]	10 to 20
CC(C)n1ncc2c(C#N)cc3cnc(Nc4cc(F)c(N5CCNCC5)cn4)nc3c21.Cl [Compound I-72]	20 to 50
CCN1CCN(c2ccc(Nc3ncc4cc(C#N)c5cnn(C(C)C)c5c4n3)nc2)CC1 [Compound I-73]	10 to 20
CC(=O)c1cc2cnc(Nc3ccc(N4CCNCC4)cn3)nc2c2c1cnn2C(C)C [Compound I-75]	1 to 5
CC(=O)c1cc2cnc(Nc3ccc(N4CCN(C)CC4)cn3)nc2c2c1cnn2C(C)C [Compound I-77]	5 to 10
CC(=O)c1cc2cnc(Nc3ccc(N4CCOCC4)cn3)nc2c2c1cnn2C(C)C [Compound I-79]	5 to 10

Further lines, results first:

IC50 [nM]	Structure (SMILES)
10 to 20	CC(C)n1ncc2c(Br)cc3cnc(Nc4ccc(N5CCN(C)CC5)cn4)nc3c21 [Compound I-63]
10 to 20	Cc1cc2cnc(Nc3ccc(N4CCNCC4)cn3)nc2c2c1cnn2C(C)C.Cl [Compound I-66]
20 to 50	Cc1cc2cnc(Nc3cc(F)c(N4CCNCC4)cn3)nc2c2c1cnn2C(C)C.Cl [Compound I-67]
10 to 20	Cc1cc2cnc(Nc3ccc(N4CCN(C)CC4)cn3)nc2c2c1cnn2C(C)C [Compound I-68]
10 to 20	CCN1CCN(c2ccc(Nc3ncc4cc(C)c5cnn(C(C)C)c5c4n3)nc2)CC1 [Compound I-69]
10 to 20	Cc1cc2cnc(Nc3ccc(N4CCOCC4)cn3)nc2c2c1cnn2C(C)C [Compound I-70]
10 to 20	CC(C)n1ncc2c(C#N)cc3cnc(Nc4ccc(N5CCOCC5)cn4)nc3c21 [Compound I-74]
10 to 20	CC(=O)c1cc2cnc(Nc3cc(F)c(N4CCNCC4)cn3)nc2c2c1cnn2C(C)C.Cl [Compound I-76]
1 to 5	CCN1CCN(c2ccc(Nc3ncc4cc(C(C)=O)c5cnn(C(C)C)c5c4n3)nc2)CC1 [Compound I-78]
5 to 10	COc1cc(OC)cc(-c2cc3cnc(Nc4ccc(N5CCNCC5)cn4)nc3c3c2cnn3C(C)C)c1.Cl [Compound I-80]
5 to 10	CCN1CCN(c2ccc(Nc3ncc4cc(-c5cc(OC)cc(OC)c5)c5cnn(C(C)C)c5c4n3)nc2)CC1 [Compound I-81]
5 to 10	COc1cc(OC)cc(-c2cc3cnc(Nc4ccc(N5CCOCC5)cn4)nc3c3c2cnn3C(C)C)c1 [Compound I-82]
